Read-outs that look alike come from different tables or passages of the source. Marks after values point to notes of the source that are not given here.
Assays:
[1] = not given; remark: listed apart in the source
[2] = tested on: patients with HOCM; settings: Cohort 1 of Example 3, 200 mg once a day for 5 days
Description: (§1) A total of up to 24 subjects were enrolled in 3 cohorts (8 per cohort). The subjects underwent at least one set of screening, hospital stay, and the end of study (EOS). Based on (1) safety data reviewed by the Safety Review Committee (SRC) and (2) consent to participate, subjects who underwent EOS in one cohort study could participate in another subsequent cohort study after a washout period of at least 7 days after they received the last investigational medicinal product on day 5 of the previous cohort study.
(§2) If subjects participated in another cohort study of Cohort 1 or 2, screening and inclusion/exclusion criteria were re-evaluated after the washout period. […] All subjects in each cohort were reviewed for safety data by the Safety Review Committee (SRC) after EOS before enrollment in the next dose cohort. The maximum duration of the clinical trial was over 15 weeks, including 9 weeks of screening, approximately 3 weeks of hospital stay and 3 weeks of EOS.

[3] = tested on: patients with HOCM; settings: for Mean LVOT gradient at rest, actual measured value / Mean LVOT gradient at rest, decrease rate / Mean LVOT gradient with Valsalva maneuver, actual measured value / Mean LVOT gradient with Valsalva maneuver, decrease rate: drug (6) and placebo (2)
Description: Echocardiography (heart scanning): In a state in which the patient is lying flat, a transducer is placed on the chest of the patient, and high-frequency sound waves (sound waves higher than those that humans can hear) are delivered into the body towards the heart. As the sound wave passes through other parts of the body, a part of the wave bounces back to the transducer, and the image of the heart and blood flow is interpreted by the ultrasound machine. This is to examine the heart's ability to eject blood, as well as heart abnormalities, including the atria, valves and major blood vessels.
as §1, §2
In the case of once-a-day administration, the test drug was administered in the morning of each administration day. In the case of twice-a-day administration, the test drug was administered at 12-hour intervals (in the morning and in the evening) on from day 1 to day 4 and administered only in the morning on day 5.
Subjects who meet the following criteria are considered eligible to participate in the clinical trial: • patients with a maximal left ventricular wall thickness of 15 mm or more (13 mm or more for patients with a family history); • patients with a left ventricular outflow tract (LVOT) gradient of 30 mmHg or more at rest, or an LVOT gradient of 50 mmHg or more after provocation (including provocation such as Valsalva maneuver, standing, post-exercise, etc.); or • patients with a left ventricular ejection fraction (LVEF) of 55% or more. Exclusion Criteria
Secondary assessment variables were pharmacokinetics including Cmax, and the left ventricular outflow track (LVOT) gradient and left ventricular ejection fraction (LVEF) by transthoracic echocardiography (TTE), as wells as blood B-natriuretic peptide (BNP) and troponin levels.
In Example 3 above, the left ventricular outflow track (LVOT) gradient), which is an effect indicator, was measured on day 5 of administration.

[4] = tested on: healthy volunteers; experiment: Electrocardiogram (QTcF, QRS) after repeated dose in healthy volunteers (Example 2)
Description: (§3) The electrocardiogram is checked after resting in a supine position in a quiet environment (e.g., without distracting factors) for at least 5 minutes. A sticky pad is attached to the body, and the pad has a thin wire connected to a machine that records measurements of the heart and prints a report. Each time an electrocardiogram is performed, the clinical trial staff performs three electrocardiogram recordings. The time between ECG recordings should not exceed 2 minutes, and the total time should not exceed 10 minutes.
(§4) Primary assessment variables were safety, tolerability and side effects, and the clinical test items were 12-electrode electrocardiogram (including corrected QT interval (calculated by Fridericia formula) [QTc(F)]), QT interval, QRS interval, PR interval, and ventricular rate), vital signs (blood pressure, pulse, body temperature, respiration rate), hypersensitivity (determined by ECG recording and vital signs), clinical laboratory assessment (hematology, blood chemistry, urinalysis, etc.), and adverse events (including serious adverse events).
For participants in Cohort 4, electrocardiogram, pharmacodynamic assessment (echocardiography), etc. were performed on one day before administration, the day of administration (day 1), one day after administration (day 2), day 5 and day 6.
For participants in Cohort 5, electrocardiogram, pharmacodynamic assessment (echocardiography), etc. were performed on one day before administration, the day of administration (day 1), and day 5, day 14 and day 15.
For participants in Cohort 6, electrocardiogram, pharmacodynamic assessment (echocardiography), etc. were performed on one day before administration, the day of administration (day 1), and day 5 and day 14.

[5] = tested on: healthy volunteers; experiment: Electrocardiogram (QTcF, QRS) after single dose in healthy volunteers (Example 1)
Description: as §3
(§5) Primary assessment variables were safety, tolerability and side effects, and the clinical trial items were 12-electrode electrocardiogram (including corrected QT interval (calculated by Fridericia formula) [QTc(F)]), QT interval, QRS interval, PR interval, and ventricular rate), vital signs (blood pressure, pulse, body temperature, respiration rate), hypersensitivity (determined by ECG recording and vital signs), clinical laboratory assessment (hematology, blood chemistry, urinalysis, etc.), and adverse events (including serious adverse events).
For participants in Cohorts 1 to 3, electrocardiogram, pharmacodynamic assessment (echocardiography), etc. were performed on one day before administration, the day of administration (day 1), and for two days after administration (48 hours, day 2 and day 3).

[6] = tested on: healthy volunteers; experiment: Clinical safety and tolerability, repeated dose, healthy volunteers (Example 2)
Description: (§6) In this study, a total of 24 subjects were randomized 1:1:1 to three cohorts and subjected to a total of four stages: screening, treatment period 1, drug withdrawal period, and treatment period 2. The ratio between the drug administration group and the non-drug-administration group (placebo) was 6:2.
as §4

[7] = tested on: healthy volunteers; experiment: Clinical safety and tolerability, single dose, healthy volunteers (Example 1)
Description: as §6, §5

[8] = Cohort 3 (control): 150 mg oral three times a day, healthy volunteers
[9] = Cohort 3: racemate 150 mg oral three times a day, only S(−)-cibenzoline moiety
[10] = Cohort 6 (control): 150 mg oral three times a day for 14 days, PK on day 14
[11] = Cohort 6: racemate 150 mg three times a day for 14 days, day 14, only S(−)-cibenzoline moiety
[12] = HOCM Cohort 1, 200 mg once a day, before administration (day 5), before unblinding: drug (6) and placebo (2)
[13] = HOCM Cohort 1, 200 mg once a day, day 5, 2.5 hours after administration
[14] = HOCM Cohort 1, 200 mg once a day, day 5, 6 hours after administration
[15] = Cohort 4, 200 mg once a day, Day 5, 1.5 hr after administration
[16] = Cohort 4, 200 mg once a day, Day 5, 3 hr after administration
[17] = Cohort 4, 200 mg once a day, Day 5, 8 hr after administration
[18] = Cohort 4, 200 mg once a day, Day 5 before administration
[19] = Cohort 5, 300 mg once a day, Day 14, 1.5 hr after administration
[20] = Cohort 5, 300 mg once a day, Day 14, 3 hr after administration
[21] = Cohort 5, 300 mg once a day, Day 14, 8 hr after administration
[22] = Cohort 5, 300 mg once a day, Day 14 before administration
[23] = Cohort 1, 200 mg single dose, Day 1, 1.5 hr after administration
[24] = Cohort 1, 200 mg single dose, Day 1, 3 hr after administration
[25] = Cohort 1, 200 mg single dose, Day 1, 8 hr after administration
[26] = Cohort 1, 200 mg single dose, Day 1 before administration (baseline)
[27] = Cohort 2, 300 mg single dose, Day 1, 1.5 hr after administration
[28] = Cohort 2, 300 mg single dose, Day 1, 3 hr after administration
[29] = Cohort 2, 300 mg single dose, Day 1, 8 hr after administration
[30] = Cohort 2, 300 mg single dose, Day 1 before administration (baseline)

In the case of `O=C(O)CCC(=O)O.c1ccc(C2(c3ccccc3)CC2C2=NCCN2)cc1` (racemic) [racemic cibenzoline succinate], the AUC [8] is reported as 7540.4 ng·h/mL, the Cmax [8] is reported as 367.4 ng/mL and the Tmax [8] is reported as 1.7 h. The “AUC (extract of only S(−)-cibenzoline moiety)” value [9] was “(3610.3) ng · hr/mL”, the “Cmax (extract of only S(−)-cibenzoline moiety)” value [9] was “(193.2) ng/mL” and the “Tmax (extract of only S(−)-cibenzoline moiety)” value [9] was “(1.7) h”. The Cmax [1, 10] was 608.1 ng/mL, the Tmax [1, 10] was 1.3 h and the “AUC (extract of only S(−)-cibenzoline moiety)” value ([1]; Cohort 6, day 14, only S(−)-cibenzoline moiety, simulation: 8-hour PK data multiplied by 3) was “(4732.2)* ng · hr/mL”. The AUC ([1]; Cohort 6: 150 mg three times a day for 14 days, simulation: 8-hour day 14 PK data multiplied by 3) was 8876.4* ng · hr/mL, the “Cmax (extract of only S(−)-cibenzoline moiety)” value [1, 11] was “(334.2) ng/mL” and the “Tmax (extract of only S(−)-cibenzoline moiety)” value [1, 11] was “(1.0) h”.

In the case of `c1ccc(C2(c3ccccc3)C[C@@H]2C2=NCCN2)cc1` [S(−)-cibenzoline succinate], the drug-related adverse event [2] is reported as “no drug-related adverse event occurred”, the “Mean LVOT gradient at rest” value [3, 12] is reported as 90.18 mmHg and the “Mean LVOT gradient with Valsalva maneuver” value [3, 12] is reported as 128.50 mmHg. The “Mean LVOT gradient at rest, actual measured value” [3, 13] was 77.09 mmHg, the “Mean LVOT gradient at rest, decrease rate” value [3, 13] was 15% and the “Mean LVOT gradient with Valsalva maneuver, actual measured value” [3, 13] was 98.22 mmHg. For the same compound, the “Mean LVOT gradient with Valsalva maneuver, decrease rate” value [3, 13] was 24%, the “Mean LVOT gradient at rest, actual measured value” [3, 14] was 88.07 mmHg and the “Mean LVOT gradient at rest, decrease rate” value [3, 14] was 2%. The “Mean LVOT gradient with Valsalva maneuver, actual measured value” [3, 14] was 126.52 mmHg, the “Mean LVOT gradient with Valsalva maneuver, decrease rate” value [3, 14] was 2% and the QRS [4, 15] was 100 ms. It also gave a QTcF [4, 15] of 417 ms, a QRS [4, 16] of 102 ms and a QTcF [4, 16] of 433 ms. The QRS [4, 17] was 96 ms, the QTcF [4, 17] was 417 ms and the QRS [4, 18] was 92 ms. The QTcF [4, 18] was 399 ms, the QRS [4, 19] was 124 ms and the QTcF [4, 19] was 435 ms. For the same compound, the QRS [4, 20] was 130 ms, the QTcF [4, 20] was 444 ms and the QRS [4, 21] was 110 ms. It also gave a QTcF [4, 21] of 427 ms, a QRS [4, 22] of 106 ms and a QTcF [4, 22] of 404 ms. The QRS [5, 23] was 102 ms, the QTcF [5, 23] was 412 ms and the QRS [5, 24] was 107 ms. It also gave a QTcF [5, 24] of 426 ms, a QRS [5, 25] of 99 ms and a QTcF [5, 25] of 408 ms. For the same compound, the QRS [5, 26] was 92 ms, the QTcF [5, 26] was 406 ms and the QRS [5, 27] was 107 ms. For the same compound, the QTcF [5, 27] was 419 ms, the QRS [5, 28] was 116 ms and the QTcF [5, 28] was 429 ms. The QRS [5, 29] was 107 ms, the QTcF [5, 29] was 415 ms and the QRS [5, 30] was 101 ms. The QTcF [5, 30] was 411 ms.

For `c1ccc(C2(c3ccccc3)C[C@@H]2C2=NCCN2)cc1` [S(−)-cibenzoline, S-2-(2,2-diphenylcyclopropyl)-4,5-dihydro-1H-imidazole], the safety and tolerability ([6]; 200 mg or 300 mg once a day, repeated dose, healthy volunteers) was “safe and tolerable”, the serious side effects ([6]; Cohorts 4 and 5 (200 mg once a day 5 days; 300 mg once a day 14 days) compared to Cohort 6) was “serious side effects did not occur” and the “decrease of left ventricular outflow tract (LVOT) gradient after drug administration” value ([3]; HOCM patients, Example 3) was “about 10 mmHg”. For the same compound, the safety and tolerability ([7]; 200 mg or 300 mg once a day, single dose, healthy volunteers) was “safe and tolerable” and the serious side effects ([7]; Cohorts 1 and 2 (200 mg or 300 mg once a day, single dose) compared to Cohort 3, healthy volunteers) was “no serious side effects occurred”.

Source: US12551465B2 (priority 2020, dated 2026)
